# Data: the NIST ThermoML archive (doi:10.1021/je8003707)
# Numbers after ± are expanded uncertainties.
# Conditions: 101 kPa, Liquid; for viscosity: Capillary tube (Ostwald / Ubbelohde) method; for mass density: Pycnometric method
structure (smiles),measurement,setting,value
CCCCCCC [heptane],viscosity,288.15 K,0.441 ± 0.007 mPa·s
same,mass density,288.15 K,688.1 ± 0.3 kg/m3
same,viscosity,293.15 K,0.417 ± 0.007 mPa·s
same,mass density,293.15 K,683.8 ± 0.3 kg/m3
same,viscosity,298.15 K,0.396 ± 0.007 mPa·s
same,mass density,298.15 K,679.7 ± 0.3 kg/m3
same,viscosity,303.15 K,0.375 ± 0.007 mPa·s
same,mass density,303.15 K,675.4 ± 0.3 kg/m3
same,viscosity,308.15 K,0.356 ± 0.007 mPa·s
same,mass density,308.15 K,671.1 ± 0.3 kg/m3
C1CCCCC1 [cyclohexane],viscosity,288.15 K,1.077 ± 0.011 mPa·s
same,mass density,288.15 K,783.3 ± 0.3 kg/m3
same,viscosity,293.15 K,0.984 ± 0.01 mPa·s
same,mass density,293.15 K,778.6 ± 0.3 kg/m3
same,viscosity,298.15 K,0.903 ± 0.01 mPa·s
same,mass density,298.15 K,773.9 ± 0.3 kg/m3
same,viscosity,303.15 K,0.83 ± 0.009 mPa·s
same,mass density,303.15 K,769.2 ± 0.3 kg/m3
same,viscosity,308.15 K,0.764 ± 0.009 mPa·s
same,mass density,308.15 K,764.5 ± 0.4 kg/m3
